The target in this assay is human μ-opiate receptor (Homo sapiens, UniProt P35372). Put plainly: Affinity for the human μ-opiate receptor ([3H]-naloxone displacement, SPA, CHO-K1 membrane preparation). Format: binding. The following applies: for inhibition at 1 µM: read-out: μ-Opioid receptor, % inhibition [1 μM]; for Ki: read-out: μ-Opioid receptor, Ki.
Setting [1] is: 1 μM test substance, inhibition of specific [3H]-naloxone binding.

Read-outs that look alike come from different tables or passages of the source.

human μ-opiate receptor, sequence (P35372 whole entry): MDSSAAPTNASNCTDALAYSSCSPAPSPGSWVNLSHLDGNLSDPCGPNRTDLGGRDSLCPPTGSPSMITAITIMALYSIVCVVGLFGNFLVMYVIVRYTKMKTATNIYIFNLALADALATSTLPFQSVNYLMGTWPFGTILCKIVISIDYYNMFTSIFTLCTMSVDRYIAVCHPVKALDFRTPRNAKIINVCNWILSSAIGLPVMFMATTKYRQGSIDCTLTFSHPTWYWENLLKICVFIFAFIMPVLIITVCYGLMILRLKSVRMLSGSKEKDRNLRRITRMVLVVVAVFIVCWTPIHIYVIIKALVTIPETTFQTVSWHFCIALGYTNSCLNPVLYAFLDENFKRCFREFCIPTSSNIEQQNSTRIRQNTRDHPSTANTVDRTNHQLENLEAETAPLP

As a reminder, the inhibition is the relative decrease from the control value, in per cent. In general, Ki refers to the dissociation constant of the complex between target and ligand, obtained from inhibition or displacement. Take `CN(C)C(c1cccs1)C1CCC(CCNC(=O)c2ccccc2Cl)CC1` (stereo not shown) [compound 425, 2-chloro-N-{2-[4-(dimethylamino-thiophen-2-yl-methyl)-cyclohexyl]-ethyl}-benzamide]: the inhibition at 1 µM was found to be 94% and the Ki came to 6 nM. In the same order, the values of `CN(C)C(c1cccc(F)c1)C1CCC(CCNC(=O)c2cccc(Cl)c2)CC1` (single isomer, unassigned) [compound 400, 3-chloro-N-(2-{4-[dimethylamino-(3-fluoro-phenyl)-methyl]-cyclohexyl}-ethyl)-benzamide] are 94% and 23 nM. For the compound `COc1cccc(C(=O)NC2CCC(C(c3cccs3)N(C)C)CC2)c1` (stereo not shown) [compound 199, N-[4-(dimethylamino-thiophen-2-yl-methyl)-cyclohexyl]-3-methoxy-benzamide], the inhibition at 1 µM amounted to 94% and the Ki worked out at 21 nM. Take `CN(C)C(c1ccccc1)C1CCC(CNC(=O)c2cncc(Br)c2)CC1` (stereo not shown) [compound 386, 5-bromo-N-[4-(dimethylamino-phenyl-methyl)-cyclohexylmethyl]-nicotinamide]: the inhibition at 1 µM amounted to 82% and the Ki came to 100 nM. As to `CN(C)C(c1ccccc1)C1CCC(CNC(=O)C2(c3ccc(Cl)cc3)CCCC2)CC1` (stereo not shown) [compound 339, 1-(4-chloro-phenyl)-cyclopentane-carboxylic acid [4-(dimethylamino-phenyl-methyl)-cyclohexylmethyl]-amide], the “μ-Opioid receptor, % inhibition [1 μM]” value was 91% and the Ki was 25 nM. In the case of `CN(C)C(c1ccccc1)C1CCC(NC(=O)c2csc3ccccc23)CC1` (stereo not shown) [compound 183, benzo[b]thiophene-3-carboxylic acid [4-(dimethylamino-phenyl-methyl)-cyclohexyl]-amide], the inhibition at 1 µM worked out at 103% and the Ki worked out at 3.9 nM. In the same order, the values of `CN(C)C(c1ccc(Cl)cc1)C1CCC(CCNC(=O)c2cccnc2Cl)CC1` (stereo not shown) [compound 441, 2-chloro-N-(2-{4-[(4-chloro-phenyl)-dimethylamino-methyl]-cyclohexyl}-ethyl)-nicotinamide] are 83% and 200 nM. For the compound `CC(=O)N(C(C)Cc1c[nH]c2ccccc12)C1CCC(C(c2ccccc2)N(C)C)CC1` (stereo not shown) [compound 177], the “μ-Opioid receptor, % inhibition [1 μM]” value was 86% and the Ki amounted to 7.2 nM. Consider `COc1cccc(C(=O)NCCC2CCC(C(c3ccc(F)cc3)N(C)C)CC2)c1` (stereo not shown) [compound 447, N-(2-{4-[dimethylamino-(4-fluoro-phenyl)-methyl]-cyclohexyl}-ethyl)-3-methoxy-benzamide], for which the inhibition at 1 µM was found to be 83% and the Ki is 130 nM. The like results for `CN(C)C(c1ccccc1)C1CCC(NC(=O)c2cc(F)ccc2C(F)(F)F)CC1` (stereo not shown) [compound 281, N-[4-(dimethylamino-phenyl-methyl)-cyclohexyl]-5-fluoro-2-trifluoromethyl-benzamide] were, in that order, 73% and 46 nM.

Take `CCSc1ncccc1C(=O)NC1CCC(C(c2cccs2)N(C)C)CC1` (stereo not shown) [compound 213, N-[4-(dimethylamino-thiophen-2-yl-methyl)-cyclohexyl]-2-ethylsulfanyl-nicotinamide]: the inhibition at 1 µM came out at 91% and the Ki was determined as 96 nM. As for `CN(C)C(c1ccccc1)C1CCC(CCNC(=O)c2ccc(Cl)c(Cl)c2)CC1` (stereo not shown) [compound 416, 3,4-dichloro-N-{2-[4-(dimethylamino-phenyl-methyl)-cyclohexyl]-ethyl}-benzamide], the inhibition at 1 µM was 86% and the Ki is 19 nM. On to `CN(C)C(c1cccc(F)c1)C1CCC(O)(c2ccc(Cl)c(C(F)(F)F)c2)CC1` (stereo not shown) [compound 157, 1-(4-chloro-3-trifluoromethyl-phenyl)-4-[dimethylamino-(3-fluoro-phenyl)-methyl]-cyclohexanol], for which the inhibition at 1 µM under setting [1] was determined as 72%. Take `Cc1ccc(Oc2ncccc2C(=O)NC2CCC(C(c3cccs3)N(C)C)CC2)cc1` (stereo not shown) [compound 220, N-[4-(dimethylamino-thiophen-2-yl-methyl)-cyclohexyl]-2-p-tolyloxy-nicotinamide]: the inhibition at 1 µM stood at 88% and the Ki came out at 150 nM. Consider `CC(C)S(=O)(=O)c1csc(C(=O)NCC2CCC(C(c3cccs3)N(C)C)CC2)c1Cl` (stereo not shown) [compound 367, 3-chloro-4-(propane-2-sulfonyl)-thiophene-2-carboxylic acid [4-(dimethylamino-thiophen-2-yl-methyl)-cyclohexylmethyl]-amide], for which the inhibition at 1 µM was 85% and the Ki is 110 nM. In the same order, the values of `COc1c(C(=O)NCC2CCC(C(c3ccc(F)cc3)N(C)C)CC2)csc1Cl` (stereo not shown) [compound 376, 5-chloro-4-methoxy-thiophene-3-carboxylic acid {4-[dimethylamino-(4-fluoro-phenyl)-methyl]-cyclohexylmethyl}-amide] are 84% and 40 nM. In the case of `CN(C)C(c1ccccc1)C1CCC(CCNC(=O)c2ccccc2F)CC1` (stereo not shown) [compound 410, N-{2-[4-(dimethylamino-phenyl-methyl)-cyclohexyl]-ethyl}-2-fluoro-benzamide], the inhibition at 1 µM stood at 88% and the Ki turned out to be 5.8 nM. As to `CCC(C)C(=O)NCC1CCC(C(c2cccc(F)c2)N(C)C)CC1` (single isomer, unassigned) [compound 378, N-{4-[dimethylamino-(3-fluoro-phenyl)-methyl]-cyclohexylmethyl}-2-methyl-butyramide], the “μ-Opioid receptor, % inhibition [1 μM]” value worked out at 83% and the inhibitory constant (Ki) stood at 55 nM. With `CN(C)C(c1ccc(Cl)cc1)C1CCC(O)(CCc2ccccc2)CC1` (stereo not shown) [compound 163, 4-[(4-chloro-phenyl)-dimethylamino-methyl]-1-phenethyl-cyclohexanol], the inhibition at 1 µM under setting [1] is 81%. Regarding `CN(C)C(c1ccccc1)C1CCC(CCNC(=O)c2csc(-c3ccccc3)n2)CC1` (stereo not shown) [compound 463, 2-phenyl-thiazole-4-carboxylic acid {2-[4-(dimethylamino-phenyl-methyl)-cyclohexyl]-ethyl}-amide], the inhibition at 1 µM stood at 104% and the Ki is 8.6 nM. Regarding `Cc1c(S(=O)(=O)c2ccc(Cl)cc2)csc1C(=O)NC1CCC(C(c2ccccc2)N(C)C)CC1` (stereo not shown) [compound 253, 4-(4-chloro-benzenesulfonyl)-3-methyl-thiophene-2-carboxylic acid [4-(dimethylamino-phenyl-methyl)-cyclohexyl]-amide], the “μ-Opioid receptor, % inhibition [1 μM]” value came to 80% and the Ki was 79 nM. On to `Cc1ccc(C2(O)CCC(C(c3ccc(Cl)cc3)N(C)C)CC2)cc1` (stereo not shown) [compound 165, 4-[(4-chloro-phenyl)-dimethylamino-methyl]-1-p-tolyl-cyclohexanol], for which, under setting [1], the inhibition at 1 µM came out at 52%. For the compound `CSc1ncccc1C(=O)NCC1CCC(C(c2ccccc2)N(C)C)CC1` (stereo not shown) [compound 299, N-[4-(dimethylamino-phenyl-methyl)-cyclohexylmethyl]-2-methylsulfanyl-nicotinamide], the inhibition at 1 µM stood at 100% and the Ki worked out at 1 nM. With `CN(C)C(c1ccccc1)C1CCC(NC(=O)c2cccc(Cl)c2)CC1` (stereo not shown) [compound 187, 3-chloro-N-[4-(dimethylamino-phenyl-methyl)-cyclohexyl]-benzamide], the inhibition at 1 µM stood at 100% and the Ki turned out to be 8.5 nM. Regarding `CN(C)C(c1ccccc1)C1CCC(NC(=O)C2(c3ccc(Cl)cc3)CCCC2)CC1` (stereo not shown) [compound 184, 1-(4-chloro-phenyl)-cyclopentanecarboxylic acid [4-(dimethylamino-phenyl-methyl)-cyclohexyl]-amide], the inhibition at 1 µM came to 101% and the Ki stood at 5.2 nM.

`CN(C)C(c1ccccc1)C1CCC(NC(=O)Cc2ccc(Cl)cc2)CC1` (stereo not shown) [compound 206, 2-(4-chloro-phenyl)-N-[4-(dimethylamino-phenyl-methyl)-cyclohexyl]-acetamide]: the inhibition at 1 µM is 93% and the Ki was found to be 56 nM. As for `Cc1ccccc1C(=O)NCCC1CCC(C(c2ccccc2)N(C)C)CC1` (single isomer, unassigned) [compound 417, N-{2-[4-(dimethylamino-phenyl-methyl)-cyclohexyl]-ethyl}-2-methyl-benzamide], the inhibition at 1 µM came out at 91% and the Ki was found to be 31 nM.

For `CCn1nc(C)c(Br)c1C(=O)NC1CCC(C(c2ccccc2)N(C)C)CC1` (stereo not shown) [compound 268, 4-bromo-2-ethyl-5-methyl-2H-pyrazole-3-carboxylic acid [4-(dimethylamino-phenyl-methyl)-cyclohexyl]-amide], the inhibition at 1 µM turned out to be 76% and the Ki was 86 nM.

For `CN(C)C(c1cccc(F)c1)C1CCC(CNC(=O)c2ccccc2Br)CC1` (stereo not shown) [compound 363, 2-bromo-N-{4-[dimethylamino-(3-fluoro-phenyl)-methyl]-cyclohexylmethyl}-benzamide], the inhibition at 1 µM stood at 85% and the Ki was 38 nM. In the same order, the values of `CC(=O)N(C(C)Cc1c[nH]c2ccccc12)C1CCC(C(c2ccccc2)N(C)C)CC1` (stereo not shown) [compound 178, N-(1-(1H-indol-3-yl)propan-2-yl)-N-(4-((dimethylamino)(phenyl)methyl)-cyclohexyl)acetamide] are 96% and 1.2 nM. The like results for `Cc1ccccc1C(=O)NCC1CCC(C(c2ccccc2)N(C)C)CC1` (single isomer, unassigned) [compound 317, N-[4-(dimethylamino-phenyl-methyl)-cyclohexylmethyl]-2-methyl-benzamide] were, in that order, 95% and 29 nM. As to `CN(C)C(CCc1ccccc1)C1CCC(NC(=O)c2ccc(F)c(C(F)(F)F)c2)CC1` (single isomer, unassigned) [compound 227, N-[4-(1-dimethylamino-3-phenyl-propyl)-cyclohexyl]-4-fluoro-3-trifluoromethyl-benzamide], the “μ-Opioid receptor, % inhibition [1 μM]” value worked out at 87% and the Ki amounted to 58 nM.
